Laboratory results taken from ChEMBL document CHEMBL4270561, “Biological activity of doubly modified salinomycin analogs - Evaluation in vitro and ex vivo” (Eur J Med Chem, 2018).

Columns and labels:
SK-BR-3 = assay: Antiproliferative activity against human SK-BR-3 cells after 72 hrs by SRB assay; format: functional, cell-based; details: SK-BR-3, 72 h
[1] = Selectivity index, ratio of IC50 for human MCF10A cells to IC50 for human MCF7 cells; format: toxicity; details: MCF10A cells versus MCF7 cells, read-out: Ratio IC50
[2] = Antiproliferative activity against human LoVo/DX cells after 72 hrs by SRB assay; format: functional, cell-based
MCF7 = assay: Antiproliferative activity against human MCF7 cells after 72 hrs by SRB assay; format: functional, cell-based; details: MCF7, 72 h
[3] = Resistance index, ratio of IC50 for human LoVo/DX cells to IC50 for human LoVo cells; format: functional
LoVo = assay: Antiproliferative activity against human LoVo cells after 72 hrs by SRB assay; format: functional, cell-based
[4] = Antiproliferative activity against human ALL5 cells after 120 hrs by MTT assay; format: functional, cell-based; details: ALL5, 120 h
[5] = Selectivity index, ratio of IC50 for human MCF10A cells to IC50 for human ALL5 cells; format: toxicity; details: MCF10A cells versus ALL5 cells, read-out: Ratio IC50
[6] = Selectivity index, ratio of IC50 for human MCF10A cells to IC50 for human JIMT1 cells; format: toxicity; details: MCF10A cells versus JIMT1 cells, read-out: Ratio IC50
[7] = Selectivity index, ratio of IC50 for human MCF10A cells to IC50 for human SK-BR-3 cells; format: toxicity; details: MCF10A cells versus SK-BR-3 cells, read-out: Ratio IC50
MCF-10A [8] = assay: Antiproliferative activity against human MCF10A cells after 72 hrs by SRB assay; format: cell-based
[9] = Selectivity index, ratio of IC50 for human MCF10A cells to IC50 for human LoVo/DX cells; format: toxicity; details: MCF10A cells versus LoVo/DX cells, read-out: Ratio IC50
[10] = Selectivity index, ratio of IC50 for human MCF10A cells to IC50 for human LoVo cells; format: toxicity; details: MCF10A cells versus LoVo cells, read-out: Ratio IC50
JIMT-1 = assay: Antiproliferative activity against human JIMT1 cells after 72 hrs by SRB assay; format: functional, cell-based; details: JIMT-1, 72 h
[11] = Cell cycle arrest in human ALL5 cells assessed as accumulation at G0/G1 phase at 5 times antiproliferative IC50 after 96 hrs by propidium iodide staining based flow cytometry (reference value: 69.8%); format: functional
[12] = Cell cycle arrest in human ALL5 cells assessed as accumulation at sub-G1 phase at 5 times antiproliferative IC50 after 96 hrs by propidium iodide staining based flow cytometry (reference value: 12%); format: functional
[13] = Cell cycle arrest in human ALL5 cells assessed as accumulation at S-phase at 5 times antiproliferative IC50 after 48 hrs by propidium iodide staining based flow cytometry (reference value: 9.82%); format: functional
[14] = Cell cycle arrest in human ALL5 cells assessed as accumulation at G0/G1 phase at 5 times antiproliferative IC50 after 48 hrs by propidium iodide staining based flow cytometry (reference value: 69.6%); format: functional
[15] = Cell cycle arrest in human ALL5 cells assessed as accumulation at sub-G1 phase at 5 times antiproliferative IC50 after 24 hrs by propidium iodide staining based flow cytometry (reference value: 6.07%); format: functional
[16] = Cell cycle arrest in human ALL5 cells assessed as accumulation at sub-G1 phase at 5 times antiproliferative IC50 after 48 hrs by propidium iodide staining based flow cytometry (reference value: 7.8%); format: functional
[17] = Cell cycle arrest in human ALL5 cells assessed as accumulation at S-phase at 5 times antiproliferative IC50 after 24 hrs by propidium iodide staining based flow cytometry (reference value: 6.76%); format: functional
[18] = Cell cycle arrest in human ALL5 cells assessed as accumulation at G0/G1 phase at 5 times antiproliferative IC50 after 24 hrs by propidium iodide staining based flow cytometry (reference value: 79.7%); format: functional
[19] = Cell cycle arrest in human ALL5 cells assessed as accumulation at G2/M-phase at 5 times antiproliferative IC50 after 96 hrs by propidium iodide staining based flow cytometry (reference value: 11.1%); format: functional
[20] = Cell cycle arrest in human ALL5 cells assessed as accumulation at S-phase at 5 times antiproliferative IC50 after 96 hrs by propidium iodide staining based flow cytometry (reference value: 7.52%); format: functional
[21] = Cell cycle arrest in human ALL5 cells assessed as accumulation at G2/M-phase at 5 times antiproliferative IC50 after 48 hrs by propidium iodide staining based flow cytometry (reference value: 13.2%); format: functional
[22] = Cell cycle arrest in human ALL5 cells assessed as accumulation at G2/M-phase at 5 times antiproliferative IC50 after 24 hrs by propidium iodide staining based flow cytometry (reference value: 7.98%); format: functional
MCF-10A [23] = assay: Antiproliferative activity against human MCF10A cells at 100 ug/ml after 72 hrs by SRB assay relative to control; format: cell-based

Structure (SMILES) | IC50 (SK-BR-3) [µM] | IC50 (MCF7) [µM] | IC50 (LoVo) [µM] | selectivity ratio [1] | IC50 [2] [µM] | Ratio IC50 [3] | IC50 [4] [µM] | selectivity ratio [5] | selectivity ratio [6] | selectivity ratio [7] | IC50 (MCF-10A [8]) [µM] | selectivity ratio [9] | selectivity ratio [10] | IC50 (JIMT-1) [µM] | Activity [11] [%] | Activity [12] [%] | Activity [13] [%] | Activity [14] [%] | Activity [15] [%] | Activity [16] [%] | other results
CC[C@@H](C(=O)[C@@H](C)[C@@H](O)[C@H](C)[C@@H]1O[C@@H]([C@@H](CC)C(=O)OCC(F)(F)F)CC[C@@H]1C)[C@H]1O[C@]2(C=C[C@@H](O)[C@]3(CC[C@@](C)([C@H]4CC[C@](O)(CC)[C@H](C)O4)O3)O2)[C@H](C)C[C@@H]1C | 17 | 4.4 | 3.9 | 9.8 | 3.9 | 1 | 1.2 | 36 | 9.3 | 2.5 | 43 | 11 | 11 | 4.6 |  |  |  |  |  |  | 
CC[C@@H](C(=O)[C@@H](C)[C@@H](O)[C@H](C)[C@@H]1O[C@@H]([C@@H](CC)C(=O)NCCc2ccc(F)cc2)CC[C@@H]1C)[C@H]1O[C@]2(C=C[C@@H](O)[C@]3(CC[C@@](C)([C@H]4CC[C@](O)(CC)[C@H](C)O4)O3)O2)[C@H](C)C[C@@H]1C | 5.6 | 4.1 | 3.8 | 9.8 | 2.5 | 0.66 | 1.7 | 24 | 7.8 | 7.1 | 40 | 16 | 11 | 5.1 |  |  |  |  |  |  | 
CCNC(=O)O[C@@H]1C=C[C@]2(O[C@H]([C@@H](CC)C(=O)[C@@H](C)[C@@H](O)[C@H](C)[C@@H]3O[C@@H]([C@@H](CC)C(=O)OCC(F)(F)F)CC[C@@H]3C)[C@@H](C)C[C@H]2C)O[C@@]12CC[C@@](C)([C@H]1CC[C@](O)(CC)[C@H](C)O1)O2 | 64 | 6.1 | 5.3 | 9.8 | 7.5 | 1.4 | 1.5 | 40 | 5.5 | 0.94 | 60 | 8 | 11 | 11 | 56 | 27.8 | 4.5 | 64.1 | 11 | 19.8 | Activity [17]: 4.98%; Activity [18]: 76%; Activity [19]: 11%; Activity [20]: 5.42%; Activity [21]: 11.8%; Activity [22]: 8.15%
C#CCNC(=O)[C@H](CC)[C@H]1CC[C@H](C)[C@H]([C@@H](C)[C@H](O)[C@H](C)C(=O)[C@H](CC)[C@H]2O[C@]3(C=C[C@@H](OC(=O)OCC)[C@]4(CC[C@@](C)([C@H]5CC[C@](O)(CC)[C@H](C)O5)O4)O3)[C@H](C)C[C@@H]2C)O1 | 16 | 4.9 | 4.7 |  | 3.8 | 0.81 | 17 |  |  |  |  |  |  | 7.9 |  |  |  |  |  |  | Activity (MCF-10A [23]): <= 50%
C#CCNC(=O)[C@H](CC)[C@H]1CC[C@H](C)[C@H]([C@@H](C)[C@H](O)[C@H](C)C(=O)[C@H](CC)[C@H]2O[C@]3(C=C[C@@H](OC(C)=O)[C@]4(CC[C@@](C)([C@H]5CC[C@](O)(CC)[C@H](C)O5)O4)O3)[C@H](C)C[C@@H]2C)O1 | 12 | 5.8 | 4.4 | 16 | 3.7 | 0.84 | 4 | 23 | 5.4 | 7.7 | 92 | 25 | 21 | 17 | 20.6 | 76.3 | 1.75 | 58.9 | 14.5 | 34.3 | Activity [17]: 3.48%; Activity [18]: 77.1%; Activity [19]: 1.27%; Activity [20]: 2.15%; Activity [21]: 5.11%; Activity [22]: 5.01%

Continued, in another order:

IC50 (SK-BR-3) [µM] | IC50 (MCF7) [µM] | IC50 (LoVo) [µM] | Structure (SMILES) | selectivity ratio [1] | IC50 [2] [µM] | Ratio IC50 [3] | IC50 [4] [µM] | selectivity ratio [5] | selectivity ratio [6] | selectivity ratio [7] | IC50 (MCF-10A [8]) [µM] | selectivity ratio [9] | selectivity ratio [10] | IC50 (JIMT-1) [µM] | Activity [11] [%] | Activity [12] [%] | Activity [13] [%] | Activity [14] [%] | Activity [15] [%] | Activity [16] [%] | other results
7.7 | 4.7 | 4.2 | C#CCNC(=O)[C@H](CC)[C@H]1CC[C@H](C)[C@H]([C@@H](C)[C@H](O)[C@H](C)C(=O)[C@H](CC)[C@H]2O[C@]3(C=C[C@@H](OC(=O)NCC)[C@]4(CC[C@@](C)([C@H]5CC[C@](O)(CC)[C@H](C)O5)O4)O3)[C@H](C)C[C@@H]2C)O1 | 17 | 3.8 | 0.9 | 3.7 | 22 | 14 | 11 | 82 | 22 | 20 | 5.9 | 25.2 | 70.8 | 1.8 | 65.9 | 12.2 | 26.1 | Activity [17]: 4.1%; Activity [18]: 77.8%; Activity [19]: 1.55%; Activity [20]: 2.73%; Activity [21]: 6.44%; Activity [22]: 6.08%
4.3 | 3.8 | 3.5 | CCNC(=O)O[C@@H]1C=C[C@]2(O[C@H]([C@@H](CC)C(=O)[C@@H](C)[C@@H](O)[C@H](C)[C@@H]3O[C@@H]([C@@H](CC)C(=O)NCCc4ccc(F)cc4)CC[C@@H]3C)[C@@H](C)C[C@H]2C)O[C@@]12CC[C@@](C)([C@H]1CC[C@](O)(CC)[C@H](C)O1)O2 | 15 | 3.3 | 0.94 | 2.9 | 20 | 13 | 13 | 58 | 18 | 17 | 4.4 | 42.5 | 53.7 | 1.5 | 71.6 | 9.23 | 21.8 | Activity [17]: 3.8%; Activity [18]: 80.9%; Activity [19]: 1.82%; Activity [20]: 2.28%; Activity [21]: 5.34%; Activity [22]: 6.14%
8.5 | 4.3 | 3.9 | C#CCOC(=O)[C@H](CC)[C@H]1CC[C@H](C)[C@H]([C@@H](C)[C@H](O)[C@H](C)C(=O)[C@H](CC)[C@H]2O[C@]3(C=C[C@@H](O)[C@]4(CC[C@@](C)([C@H]5CC[C@](O)(CC)[C@H](C)O5)O4)O3)[C@H](C)C[C@@H]2C)O1 | 13 | 2.6 | 0.67 | 3.3 | 16 | 8.7 | 6.4 | 54 | 21 | 14 | 6.2 | 42.8 | 49.8 | 3.58 | 51.7 | 16.2 | 39.8 | Activity [17]: 4.34%; Activity [18]: 71.3%; Activity [19]: 4.64%; Activity [20]: 2.95%; Activity [21]: 5.35%; Activity [22]: 8.24%
